Measured values from PubChem BioAssay (NCI).
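These data come from cells grown in 96-well plates and exposed to compound for 48 hours at five concentrations. TGI: concentration producing complete growth inhibition.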

Columns and labels:
Test in all cases: inhibition of tumour cell growth, NCI panel, 48 h
CAKI-1 renal = tested on: CAKI-1 renal
EKVX NSCLC = tested on: EKVX NSCLC
HCT-15 colon = tested on: HCT-15 colon
HOP-62 NSCLC = tested on: HOP-62 NSCLC
M14 melanoma = tested on: M14 melanoma
OVCAR-3 ovarian = tested on: OVCAR-3 ovarian
OVCAR-8 ovarian = tested on: OVCAR-8 ovarian
SF-268 CNS = tested on: SF-268 CNS
TK-10 renal = tested on: TK-10 renal
U251 CNS = tested on: U251 CNS

Row | Compound | TGI (CAKI-1 renal) [µM] | TGI (EKVX NSCLC) [µM] | TGI (HCT-15 colon) [µM] | TGI (HOP-62 NSCLC) [µM] | TGI (M14 melanoma) [µM] | TGI (OVCAR-3 ovarian) [µM] | TGI (OVCAR-8 ovarian) [µM] | TGI (SF-268 CNS) [µM] | TGI (TK-10 renal) [µM] | TGI (U251 CNS) [µM]
1 | Cc1cc2c3c(c1)CCCN3CCC2 | > 10 | > 10 | > 10 | > 10 | > 10 | > 10 | > 10 | > 10 | > 10 | > 10
2 | N#C[C@H](C(=O)c1ccccc1F)c1nc2ccccc2[nH]1 | > 100 | > 100 | > 100 | > 100 | > 100 | > 100 | > 100 | > 100 | > 100 | > 100
3 | O=S(=O)(/N=C(\NO)Nc1ccc(Cl)cc1)c1cc(S(=O)(=O)c2ccccc2)cs1 | 46.7 | 35.4 | 44.3 | 33.5 | 29.2 | 31.1 | 36.7 | 37 | 45.4 | 30.6
4 | COCCOCCOCCC(=O)NC1CC2CCC1(C)C2(C)C (stereo not given) | > 100 | > 100 | > 100 | > 100 | > 100 | > 100 | > 100 | > 100 | > 100 | > 100
5 | COc1cccc(N2C(=O)C3CC(CC(C)(C)C)c4c([nH]c5ccccc45)C3C2=O)c1 (stereo not given) | > 10 | > 10 | > 10 | > 10 | > 10 | > 10 | > 10 | > 10 | > 10 | > 10
6 | O=C(O)Cc1ccc(Oc2nc3ccccc3nc2-c2ccccc2)cc1 | > 100 | 79.5 | > 100 | > 100 | > 100 | 65.6 | > 100 | > 100 | > 100 | > 100
7 | CC(=O)Oc1ccc(/C=C/C(=O)NCCOC(=O)/C=C/c2ccc(OC(C)=O)c(OC(C)=O)c2)cc1OC(C)=O | > 100 | > 100 | > 100 | > 100 | 74.5 | 42 | > 100 | > 100 | > 100 | > 100
8 | COc1cccc(/C=N/[N-]C(N)=O)c1[O-].[OH3+].[Pd+2] | > 100 | > 100 | > 100 | > 100 | > 100 | > 100 | > 100 | > 100 | > 100 | > 100
9 | CC(C)=NNc1ncnc2nc[nH]c12 | > 100 | 98.2 | > 100 | > 76.7 | > 100 | 40.1 | > 100 | > 100 | > 100 | > 100
10 | CC(=O)O[C@H]1C[C@H]2[C@@H]([C@H](OC(C)=O)C[C@@H]3CC4(CC[C@@]32C)OOC2(CCCCC2)OO4)[C@@H]2CC[C@H]([C@H](C)CCC(=O)O)[C@@]12C | 25.3 | 4.76 | 17 | 5.93 | 26.9 | 37.2 | 16.1 | 26.8 | 27 | 17.7
11 | Nc1nc2c(c(=O)[nH]1)NC(CCNc1ccc(C(=O)O)cc1)CN2 (stereo not given) | > 100 | > 100 | > 100 | > 100 | > 100 | > 100 | > 100 | > 100 | > 100 | > 100
12 | CN(CCCNC(=O)c1c2ccc3ccccc3c2nn1C)CCCNC(=O)c1c2ccc3ccccc3c2nn1C | 15.3 | 22.3 | 19.4 | 33.7 | 3.99 | 37.3 | 27.2 | 25.6 | 18.1 | 22.1
13 | CC1(CCCCO)C=CC(S(=O)(=O)c2ccccc2)CC1 (stereo not given) | 23.9 | 18 | 13.3 | 12.1 | 12.2 | 19 | 23.2 | 12.4 | 19.1 | 21.5
14 | CO[C@]12C[C@@H](CNC(=O)c3cc(Br)c[nH]3)O[C@H]1NC(=O)N2 | > 100 | > 100 | > 100 | > 100 | > 100 | > 100 | > 100 | > 100 | > 100 | > 100
15 | CCOC(=O)C1=C(C)N(CC(C)C)C2(O)C(OC)CC(=O)C3C(=O)N(c4ccccc4)C(=O)C132 (stereo not given) | 98.7 | > 100 | > 100 | > 100 | > 100 | > 100 | 59.6 | > 100 | > 100 | > 100
16 | O=C1NC2=NN=C(c3ccc(Br)cc3)CN2NC12c1ccccc1-c1ccccc12 | > 100 | > 100 | > 100 | > 100 | > 100 | > 100 | > 100 | > 100 | > 100 | > 100
17 | CCOC(=O)[C@@H]1C[C@@H]1c1ccc(O)c(O)c1 | > 100 | > 100 | > 100 | > 100 | 25.2 | 67.8 | 52.2 | > 100 | > 100 | > 100
